Experimental data published in article PMC5017016, “Calcium/calmodulin alleviates substrate inhibition in a strawberry UDP-glucosyltransferase involved in fruit anthocyanin biosynthesis” (BMC Plant Biology, 2016).

Target: T1, FvUGT1 (Fragaria vesca, UniProt A0A1S5NSV4)
T1 construct: gene UGT1; full-length ORF in pET-32 (KpnI/BamHI), N- and C-terminal His-tags kept, fusion 72 kD, E. coli BL21(DE3) pLysS, Ni-NTA; oligomer state unknown
T1 sequence (A0A1S5NSV4 1-465): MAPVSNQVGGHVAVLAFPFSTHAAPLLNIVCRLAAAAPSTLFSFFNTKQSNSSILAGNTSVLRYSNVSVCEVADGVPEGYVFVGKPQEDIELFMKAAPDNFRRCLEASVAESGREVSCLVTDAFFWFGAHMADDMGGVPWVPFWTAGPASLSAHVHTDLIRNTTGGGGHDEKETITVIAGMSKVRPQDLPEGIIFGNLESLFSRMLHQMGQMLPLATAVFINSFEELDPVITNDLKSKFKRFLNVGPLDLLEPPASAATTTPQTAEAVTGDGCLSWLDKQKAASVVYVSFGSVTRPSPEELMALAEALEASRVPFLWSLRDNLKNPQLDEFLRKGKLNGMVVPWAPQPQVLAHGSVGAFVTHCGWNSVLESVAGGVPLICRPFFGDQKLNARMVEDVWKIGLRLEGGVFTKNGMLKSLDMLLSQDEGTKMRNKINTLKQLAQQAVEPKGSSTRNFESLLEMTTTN
Experiment: phosphatase-coupled malachite green glycosyltransferase assay; partial uncompetitive substrate inhibition fit (modified Hill, x = […])
Type: biochemical
Details: second site, no calmodulin, 5 mM UDP-Glc, 0–1,400 μM pelargonidin chloride, 10 mM CaCl2, pH 7.5, 37 °C

- K i: 331.5 ± 13.3 µM
Compound: Oc1ccc(-c2[o+]c3cc(O)cc(O)c3cc2O)cc1 [pelargonidin]
